Results on two molecules are retold here after patent publication US11478445B2, “Method for treating acute myeloid leukemia” (Bionomics Limited, priority 2017, dated 2022).

Entries after “also recorded” stand apart in the source; their conditions may differ.

Assay type in all cases: cell-based, human
Test [1] deals with primary AML samples (MNC). Nature of the test: Viability (Annexin V/7AAD) assay, AML samples. As for the experimental part:
Cryopreserved mononuclear cells (MNC from BM or leukapheresis samples) were thawed in a water bath at 37° C. and cell suspension transferred to a 50 mL tube. 20 mL of IMDM media (Sigma, 13390) supplemented with 20% FBS (JRH Biosciences), 50 U/mL DNase I (Sigma), 100 IU/mL penicillin (Sigma), 100 μg/mL streptomycin (Sigma) and 2 mM L-glutamine (Sigma) was added dropwise to the cells while the tube was being vortexed slowly (or mixed by hand). The cells were centrifuged at 400 g for 5 min, supernatant was discarded and the cells were washed once with 20 mL PBS. […] The next morning, viability was determined by trypan blue exclusion and samples with viability lower than 85% underwent dead cell removal by density gradient centrifugation as follows: 15 mL of Lymphoprep (AXIS-Shield) was transferred to a 50 mL tube and the cell suspension (25 mL) carefully overlayed (so as not to disturb the interface mixing with the Lymphoprep). […] Viability and cell density were determined by trypan blue exclusion and cells were plated for respective experiments as described in the Results section.
2×10^5 cells (200 μL) were harvested in 5 mL tubes and washed 3 times with PBS. […] Results were analysed with FCS Express 4 Flow Research Edition software (De Novo Software). […]

The test system of the next test is Noxa. Nature of the test: Western blot for Noxa in primary AML sample L-AML6. As to conditions: L-AML6, 48 h. As for the experimental part:
(§1) Cells were harvested (4×10^6 for cell lines and 7×10^6 for L-AMLs) and washed 3 times with cold PBS (centrifuged at 4° C.). Lysis buffer was prepared with NP40 Cell Lysis Buffer (ThermoFisher Scientific), cOmplete protease inhibitor (Roche, 046993116001), PhosStop (Roche, 04906837001) and Pefablock (Roche, 11585916001) at the recommended concentrations. After the washes, cells were resuspended in 50 μL of lysis buffer, vortexed and incubated on ice for 30 min. Samples were vortexed every 10 min. After 30 min incubation, samples were centrifuged at 14,000 g at 4° C. for 10 min and supernatants were transferred to tubes. Protein was quantified using the DC Protein Assay kit (BioRad) per manufacturer's protocol. 50 μg of cell lines lysate or 20 μg of L-AML6 lysate were loaded for SDS-PAGE. Protein was transferred from the gels into PVDF membranes using a semi dry transfer apparatus (BioRad). The membranes were blocked for 1 h at room temperature with 5% skim milk in 0.1% TBS-t and then incubated with gentle shaking with primary antibodies overnight at 4° C. […]
(§2) Western blot analysis. […] For L-AML6 cells P-JNK^Thr183/Tyr185 and Noxa expression were determined using the specific antibodies that have been validated in the cell line experiments (FIG. 4). […]
In general terms: Immunoblotting shows a protein as a band on a membrane.

Another test has as its system P-JNK^Thr183/Tyr185. Description: Western blot for P-JNK in primary AML sample L-AML6. As to conditions: L-AML6, 48 h. As for the experimental part: as §1, §2

As for `COc1cc(C(=O)c2c(C)oc3c(O)c(OC)ccc23)cc(OC)c1OC` [EX 1, 2-Methyl-7-hydroxy-3-(3,4,5-trimethoxybenzoyl)-6-methoxybenzofuran], the “viability (live cells, Annexin V/7AAD)” value in test [1] (48 h to 72 h) is recorded as “viability decreasing substantially”. Moreover, in the test with Noxa, the Noxa expression result was “no change was observed; also recorded: does not appear to change”. Moreover, in the test with P-JNK^Thr183/Tyr185 (500 nM), the P-JNK level entry is listed as “small increase; also recorded: induced”.
Turning to `COc1cc(/C=C\c2ccc(OC)c(OP(=O)(O)O)c2OP(=O)(O)O)cc(OC)c1OC` [OXi4503, reference compound], the “response to treatment (viability)” value in test [1] is recorded as “did not show a response”. Moreover, in the test on Noxa, the Noxa expression result was “no change was observed; also recorded: does not appear to change”. Besides, the P-JNK level result in the test with P-JNK^Thr183/Tyr185 (indicated doses) is on record as “no apparent change”.
